Patent US11655235B2, “Pyrrolidine and piperidine compounds” (YUHAN CORPORATION, priority 2019, dated 2023)

Columns and labels:
Type in all cases: biochemical
Recombinant human FAP = target: T1, Recombinant human FAP (Homo sapiens, UniProt Q12884); test: FAP inhibition, fluorogenic substrate Z-Gly-Pro-AMC; conditions: recombinant human FAP, substrate Z-Gly-Pro-AMC
T1 construct: purchased R&D systems
T1 sequence (Q12884 1-760): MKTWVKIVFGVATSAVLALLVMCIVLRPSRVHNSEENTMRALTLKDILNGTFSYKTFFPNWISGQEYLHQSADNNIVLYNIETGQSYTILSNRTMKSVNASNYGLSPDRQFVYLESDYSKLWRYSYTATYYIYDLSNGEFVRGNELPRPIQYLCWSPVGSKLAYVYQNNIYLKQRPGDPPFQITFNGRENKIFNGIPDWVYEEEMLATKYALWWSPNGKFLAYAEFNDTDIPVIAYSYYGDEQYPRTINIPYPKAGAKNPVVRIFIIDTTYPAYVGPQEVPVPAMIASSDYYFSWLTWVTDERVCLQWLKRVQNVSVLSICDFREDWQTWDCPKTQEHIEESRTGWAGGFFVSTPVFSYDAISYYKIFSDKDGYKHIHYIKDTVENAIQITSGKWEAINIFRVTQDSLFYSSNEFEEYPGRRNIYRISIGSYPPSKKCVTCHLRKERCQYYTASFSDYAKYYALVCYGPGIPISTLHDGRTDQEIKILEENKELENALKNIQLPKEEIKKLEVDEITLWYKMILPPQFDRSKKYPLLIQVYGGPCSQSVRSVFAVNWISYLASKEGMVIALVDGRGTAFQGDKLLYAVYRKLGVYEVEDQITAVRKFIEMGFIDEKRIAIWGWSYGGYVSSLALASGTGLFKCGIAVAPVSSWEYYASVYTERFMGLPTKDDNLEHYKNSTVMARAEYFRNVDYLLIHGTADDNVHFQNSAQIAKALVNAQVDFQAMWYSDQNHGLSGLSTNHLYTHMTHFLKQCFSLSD
Method in brief: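 Recombinant human FAP, 10 ng per reaction, in 50 mM Tris pH 7.5 with 1 M NaCl and 1 mg/ml BSA at 25° C; substrate Z-Gly-Pro-AMC, ≤0.1% DMSO. AMC fluorescence read at ex 380/em 460 nm; % signal-rate decrease vs no-inhibitor control, 8-point curves fitted to a four-parameter logistic for IC50.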

recombinant human PREP = target: T2, recombinant human PREP (Homo sapiens, UniProt P48147); test: PREP inhibition, fluorogenic substrate Z-Gly-Pro-AMC; conditions: Inhibitory Activity (IC50, nM) PREP, recombinant human PREP
T2 construct: purchased R&D System
T2 sequence (P48147 1-710): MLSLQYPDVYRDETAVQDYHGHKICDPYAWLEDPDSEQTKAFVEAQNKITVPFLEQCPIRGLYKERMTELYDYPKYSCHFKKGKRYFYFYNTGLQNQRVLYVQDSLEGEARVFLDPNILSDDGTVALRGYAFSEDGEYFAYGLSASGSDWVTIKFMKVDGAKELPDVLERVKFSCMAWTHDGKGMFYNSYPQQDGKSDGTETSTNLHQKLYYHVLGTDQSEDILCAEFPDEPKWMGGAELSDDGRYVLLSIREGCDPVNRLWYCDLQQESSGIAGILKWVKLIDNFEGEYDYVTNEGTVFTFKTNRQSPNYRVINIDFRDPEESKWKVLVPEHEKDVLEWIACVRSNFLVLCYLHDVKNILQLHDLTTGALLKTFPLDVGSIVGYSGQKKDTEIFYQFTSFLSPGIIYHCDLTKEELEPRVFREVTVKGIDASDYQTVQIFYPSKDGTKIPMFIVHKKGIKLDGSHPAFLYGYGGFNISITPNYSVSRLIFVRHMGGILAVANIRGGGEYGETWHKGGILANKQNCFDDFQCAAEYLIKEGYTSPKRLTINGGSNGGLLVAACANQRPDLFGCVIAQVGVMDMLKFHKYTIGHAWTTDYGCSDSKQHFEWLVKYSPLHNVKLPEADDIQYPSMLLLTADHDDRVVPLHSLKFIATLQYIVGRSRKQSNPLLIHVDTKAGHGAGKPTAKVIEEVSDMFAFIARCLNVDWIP
Method in brief: (§1)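 Enzyme per reaction: 50 ng DPP9, 20 ng DPP8, 10 ng each DPP7 and PREP. Compounds were serially diluted (8 points, up to 0.5% DMSO) and incubated at 25 °C.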

DPP4 = DPP4 (Homo sapiens, UniProt P27487); test: DPP4 inhibition, fluorogenic substrate H-Gly-Pro-AMC; design: purchased R&D Systems; conditions: recombinant human DPP4
recombinant human DPP8 = target: T3, recombinant human DPP8 (Homo sapiens, UniProt Q6V1X1); test: DPP8 inhibition, fluorogenic substrate Z-Ala-Pro-AMC; conditions: recombinant human DPP8
T3 construct: purchased PBS Bioscience
Method in brief: as §1

recombinant human DPP9 = target: T4, recombinant human DPP9 (Homo sapiens, UniProt Q86TI2); test: DPP9 inhibition, fluorogenic substrate H-Gly-Pro-AMC; conditions: recombinant human DPP9
T4 construct: purchased R&D Systems
Method in brief: as §1

recombinant human DPP7 = target: T5, recombinant human DPP7 (Homo sapiens, UniProt Q9UHL4); test: DPP7 inhibition, fluorogenic substrate Lys-Pro-AMC; conditions: recombinant human DPP7
T5 construct: purchased R&D Systems
Method in brief: as §1

T4 sequence (Q86TI2 whole entry): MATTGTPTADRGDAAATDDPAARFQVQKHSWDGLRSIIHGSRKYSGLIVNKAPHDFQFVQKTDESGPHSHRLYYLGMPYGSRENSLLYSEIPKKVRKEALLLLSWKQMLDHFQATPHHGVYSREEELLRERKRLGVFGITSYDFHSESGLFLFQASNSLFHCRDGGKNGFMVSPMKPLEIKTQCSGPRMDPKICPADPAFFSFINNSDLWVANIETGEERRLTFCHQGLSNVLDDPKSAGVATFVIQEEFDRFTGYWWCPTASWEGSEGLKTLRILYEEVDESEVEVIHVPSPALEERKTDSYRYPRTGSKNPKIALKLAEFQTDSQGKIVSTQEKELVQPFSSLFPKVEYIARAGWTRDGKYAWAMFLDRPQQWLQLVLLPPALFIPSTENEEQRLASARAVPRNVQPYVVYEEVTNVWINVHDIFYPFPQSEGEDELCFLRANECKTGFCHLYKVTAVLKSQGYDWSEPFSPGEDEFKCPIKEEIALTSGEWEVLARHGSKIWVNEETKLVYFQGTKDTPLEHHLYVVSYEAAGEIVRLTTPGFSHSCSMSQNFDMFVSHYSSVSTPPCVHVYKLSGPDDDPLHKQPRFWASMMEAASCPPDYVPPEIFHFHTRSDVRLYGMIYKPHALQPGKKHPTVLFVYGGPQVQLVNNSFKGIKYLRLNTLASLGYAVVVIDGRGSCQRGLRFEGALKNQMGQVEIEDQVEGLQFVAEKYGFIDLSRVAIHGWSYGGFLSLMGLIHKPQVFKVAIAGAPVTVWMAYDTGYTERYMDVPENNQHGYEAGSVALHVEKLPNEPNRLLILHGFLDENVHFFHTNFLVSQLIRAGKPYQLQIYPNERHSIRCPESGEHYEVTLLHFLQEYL
T3 sequence (Q6V1X1 whole entry): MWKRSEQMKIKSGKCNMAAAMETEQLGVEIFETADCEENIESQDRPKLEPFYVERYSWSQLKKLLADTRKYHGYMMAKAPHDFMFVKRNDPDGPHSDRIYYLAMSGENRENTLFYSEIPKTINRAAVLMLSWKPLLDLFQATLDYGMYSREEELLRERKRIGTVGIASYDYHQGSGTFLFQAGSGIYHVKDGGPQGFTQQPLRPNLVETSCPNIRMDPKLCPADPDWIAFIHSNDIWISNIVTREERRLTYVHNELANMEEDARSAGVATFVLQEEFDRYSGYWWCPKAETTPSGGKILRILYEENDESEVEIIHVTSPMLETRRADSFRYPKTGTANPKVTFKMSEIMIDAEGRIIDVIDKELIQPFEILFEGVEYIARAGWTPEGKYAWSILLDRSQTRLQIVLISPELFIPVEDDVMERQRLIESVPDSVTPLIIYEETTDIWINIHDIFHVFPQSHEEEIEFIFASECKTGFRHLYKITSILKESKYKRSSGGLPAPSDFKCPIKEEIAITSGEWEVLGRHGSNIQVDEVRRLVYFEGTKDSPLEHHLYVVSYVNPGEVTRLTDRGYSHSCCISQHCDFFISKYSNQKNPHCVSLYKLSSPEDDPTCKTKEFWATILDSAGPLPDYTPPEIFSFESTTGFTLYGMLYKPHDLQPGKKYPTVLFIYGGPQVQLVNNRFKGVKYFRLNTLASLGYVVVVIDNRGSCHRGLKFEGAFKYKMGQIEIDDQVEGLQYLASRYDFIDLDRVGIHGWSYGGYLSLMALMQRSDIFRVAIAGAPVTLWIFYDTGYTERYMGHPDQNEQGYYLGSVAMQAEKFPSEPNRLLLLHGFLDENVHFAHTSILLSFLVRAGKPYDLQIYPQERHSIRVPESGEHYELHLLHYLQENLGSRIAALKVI
DPP4, sequence (P27487 whole entry): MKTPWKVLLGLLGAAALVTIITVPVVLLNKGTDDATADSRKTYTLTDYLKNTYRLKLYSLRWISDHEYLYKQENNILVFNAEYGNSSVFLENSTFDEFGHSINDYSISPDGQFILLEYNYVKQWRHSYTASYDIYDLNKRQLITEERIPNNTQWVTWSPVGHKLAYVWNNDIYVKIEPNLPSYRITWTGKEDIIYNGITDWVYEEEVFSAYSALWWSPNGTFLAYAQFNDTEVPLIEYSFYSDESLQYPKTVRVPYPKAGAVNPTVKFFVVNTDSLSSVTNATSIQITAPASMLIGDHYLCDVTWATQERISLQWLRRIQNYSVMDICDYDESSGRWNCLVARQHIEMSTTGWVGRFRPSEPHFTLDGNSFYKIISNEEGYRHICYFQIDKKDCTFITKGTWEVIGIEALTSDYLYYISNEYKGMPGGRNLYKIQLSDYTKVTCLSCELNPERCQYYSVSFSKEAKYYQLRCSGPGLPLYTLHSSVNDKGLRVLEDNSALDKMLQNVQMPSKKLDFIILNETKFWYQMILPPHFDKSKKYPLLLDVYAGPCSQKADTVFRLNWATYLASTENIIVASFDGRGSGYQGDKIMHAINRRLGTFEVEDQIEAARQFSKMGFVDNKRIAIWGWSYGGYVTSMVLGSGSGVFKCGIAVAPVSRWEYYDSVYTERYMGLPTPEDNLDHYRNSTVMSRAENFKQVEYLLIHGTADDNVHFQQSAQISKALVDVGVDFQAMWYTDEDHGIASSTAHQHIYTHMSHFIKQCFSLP

IC50 (Recombinant human FAP) | IC50 (recombinant human PREP) | IC50 (DPP4) | IC50 (recombinant human DPP8) | IC50 (recombinant human DPP9) | IC50 (recombinant human DPP7) | SMILES
2.7 nM | 299 nM | > 10000 nM | > 100000 nM | 7070 nM | 1850 nM | CN(c1cc2ccccc2cn1)C1CCN(CC(=O)N2C[C@@H](F)C[C@H]2C#N)CC1 [Example 317, (2S,4S)-4-fluoro-1-[2-[4-[3-isoquinolyl(methyl)amino]-1-piperidyl]acetyl]pyrrolidine-2-carbonitrile]
1.8 nM | 503 nM | > 10000 nM | 3820 nM | 5040 nM | 1320 nM | CN(c1ccc2ccncc2c1)C1CCN(CC(=O)N2C[C@@H](F)C[C@H]2C#N)CC1 [Example 319, (2S,4S)-4-fluoro-1-[2-[4-[7-isoquinolyl(methyl)amino]-1-piperidyl]acetyl]pyrrolidine-2-carbonitrile]
59.3 nM | 8500 nM | 7390 nM | 11500 nM | 6520 nM | 1190 nM | N#C[C@@H]1C[C@H](F)CN1C(=O)CN1CCC(Nc2cccc3sccc23)CC1 [Example 336, (2S,4S)-1-(2-(4-(benzo[b]thiophen-4-ylamino)piperidin-1-yl)acetyl)-4-fluoropyrrolidine-2-carbonitrile]
7.8 nM | 2540 nM | 8180 nM | 7880 nM | 2290 nM | 571 nM | N#C[C@@H]1C[C@H](F)CN1C(=O)CN1CCC(Nc2ccnc3ccc(F)cc23)CC1 [Example 337, (2S,4S)-4-fluoro-1-[2-[4-[(6-fluoro-4-quinolyl)amino]-1-piperidyl]acetyl]pyrrolidine-2-carbonitrile]
6.5 nM | 1450 nM | 6890 nM | 8330 nM | 2940 nM | 809 nM | N#C[C@@H]1C[C@H](F)CN1C(=O)CN1CCC(Nc2ccnc3ccc(Cl)cc23)CC1 [Example 338, (2S,4S)-1-[2-[4-[(6-chloro-4-quinolyl)amino]-1-piperidyl]acetyl]-4-fluoro-pyrrolidine-2-carbonitrile]
11.4 nM | 3590 nM | 8790 nM | > 10000 nM | > 30000 nM | 555 nM | N#C[C@@H]1C[C@H](F)CN1C(=O)CN1CCC(Nc2cncc3ccccc23)CC1 [Example 339, (2S,4S)-4-fluoro-1-[2-[4-(4-isoquinolylamino)-1-piperidyl]acetyl]pyrrolidine-2-carbonitrile]
5.1 nM | 7850 nM | 6500 nM | 2400 nM | 5310 nM | 523 nM | N#C[C@@H]1C[C@H](F)CN1C(=O)CN1CCC(Nc2cccc3cnccc23)CC1 [Example 340, (2S,4S)-4-fluoro-1-[2-[4-(5-isoquinolylamino)-1-piperidyl]acetyl]pyrrolidine-2-carbonitrile]
14 nM | 6650 nM | 3260 nM | 39600 nM | 5330 nM | 316 nM | N#C[C@@H]1C[C@H](F)CN1C(=O)CN1CCC(Nc2cccc3ccncc23)CC1 [Example 342, (2S,4S)-4-fluoro-1-[2-[4-(8-isoquinolylamino)-1-piperidyl]acetyl]pyrrolidine-2-carbonitrile]
2.7 nM | 637 nM | 2350 nM | 5960 nM | 3260 nM | 339 nM | N#C[C@@H]1C[C@H](F)CN1C(=O)CN1CCC(Nc2ccnc3c(C(F)(F)F)cccc23)CC1 [Example 346, (2S,4S)-4-fluoro-1-[2-[4-[[8-(trifluoromethyl)-4-quinolyl]amino]-1-piperidyl]acetyl]pyrrolidine-2-carbonitrile]
3.4 nM | 3280 nM | 6730 nM | 2810 nM | 4530 nM | 842 nM | N#C[C@@H]1C[C@H](F)CN1C(=O)CN1CCC(Nc2cccc3c(Cl)nccc23)CC1 [Example 351, (2S,4S)-1-[2-[4-[(1-chloro-5-isoquinolyl)amino]-1-piperidyl]acetyl]-4-fluoro-pyrrolidine-2-carbonitrile]
4.5 nM | 3570 nM | 5890 nM | > 10000 nM | 2880 nM | 1060 nM | N#C[C@@H]1C[C@H](F)CN1C(=O)CN1CCC(Nc2ccc(Cl)c3cnccc23)CC1 [Example 353, (2S,4S)-1-[2-[4-[(8-chloro-5-isoquinolyl)amino]-1-piperidyl]acetyl]-4-fluoro-pyrrolidine-2-carbonitrile]
8.9 nM | 2820 nM | 2080 nM | 1780 nM | 4940 nM | 428 nM | Cc1cncc2cccc(NC3CCN(CC(=O)N4C[C@@H](F)C[C@H]4C#N)CC3)c12 [Example 354, (2S,4S)-4-fluoro-1-[2-[4-[(4-methyl-5-isoquinolyl)amino]-1-piperidyl]acetyl]pyrrolidine-2-carbonitrile]
3.8 nM | 4830 nM | 4710 nM | 3600 nM | 2800 nM | 1640 nM | N#C[C@@H]1C[C@H](F)CN1C(=O)CN1CCC(Nc2ccc(F)c3cnccc23)CC1 [Example 357, (2S,4S)-4-fluoro-1-[2-[4-[(8-fluoro-5-isoquinolyl)amino]-1-piperidyl]acetyl]pyrrolidine-2-carbonitrile]
3.7 nM | 11800 nM | > 10000 nM | 30000 nM | 64600 nM | 1440 nM | COc1cc2nc(Cl)nc(NC3CCN(CC(=O)N4CCC[C@H]4C#N)CC3)c2cc1OC [Example 358, (2S)-1-[2-[4-[(2-chloro-6,7-dimethoxy-quinazolin-4-yl)amino]-1-piperidyl]acetyl]pyrrolidine-2-carbonitrile]
2.3 nM | 6000 nM | > 10000 nM | 8220 nM | 31300 nM | 971 nM | Cc1cccc2c(NC3CCN(CC(=O)N4CCC[C@H]4C#N)CC3)nc(Cl)nc12 [Example 359, (2S)-1-[2-[4-[(2-chloro-8-methyl-quinazolin-4-yl)amino]-1-piperidyl]acetyl]pyrrolidine-2-carbonitrile]

SMILES | IC50 (Recombinant human FAP) | IC50 (recombinant human PREP) | IC50 (DPP4) | IC50 (recombinant human DPP8) | IC50 (recombinant human DPP9) | IC50 (recombinant human DPP7)
CN(c1cncc2ccoc12)C1CCN(CC(=O)N2C[C@@H](F)C[C@H]2C#N)CC1 [Example 350, (2S,4S)-4-fluoro-1-[2-[4-[furo[3,2-c]pyridin-7-yl(methyl)amino]-1-piperidyl]acetyl]pyrrolidine-2-carbonitrile] | 8.2 nM | 625 nM | 7900 nM | 17500 nM | 27500 nM | 9080 nM
N#C[C@@H]1C[C@H](F)CN1C(=O)CN1CCC(Nc2ccc([N+](=O)[O-])c3cnccc23)CC1 [Example 356, (2S,4S)-4-fluoro-1-[2-[4-[(8-nitro-5-isoquinolyl)amino]-1-piperidyl]acetyl]pyrrolidine-2-carbonitrile] | 3.7 nM | 4980 nM | 4020 nM | 953 nM | 741 nM | 2050 nM
